The results in this text go back to US20220144853A1, “IMIDAZOLINE DERIVATIVES AS CXCR4 MODULATORS” (Université de Paris, priority 2019, published 2022).

For assay [1], the system named is IFN production by activated immune cells (PBMC). Briefly: IFN production by R848-activated PBMC from healthy donors, STING-37 reporter cell line. It counts as cell-based, human. The note with it: different concentrations, R848, STING-37 reporter, FIG. 1. The method, then:
1) The blood from healthy donors was obtained from two sources. Either from “Etablissement Français du Sang” (convention #07/CABANEL/106), Paris, France or from the Apheresis and Blood Donation Unit at the Institute of Transfusion Medicine and Immunogenetics (IKT), Ulm, Germany after being approved by the Institutional Review Board at Ulm University.
(§1) In vitro experiments were performed using human peripheral blood mononuclear cells (PBMCs) isolated by density centrifugation from peripheral blood leukocyte separation medium (Cambrex, Gaithersburg, Md.).
(§2) PBMCs were cultured in RPMI 1640 (Invitrogen, Gaithersburg, Md.) (R10) containing 10% heat-inactivated fetal bovine serum, 100 U/mL Penicilium and 100 μg/mL Streptomycin (1% Pen-Strep) and 1 mM glutamine (Hyclone, Logan, Utah).
1) The PBMCs used herein were prepared as described in part A “immune cells preparation”, section 1) above. PBMCs were seeded at 2.10^6/mL. […]
(§3) 1) To quantify the secretion of functional IFN, a biological assay based on a stable cell line where luciferase reporter gene is controlled by five Interferon-Stimulated Response Elements (STING37 cell line) was used. […] After 24 h of culture, luciferase activity was determined by adding 50 μL of Bright-Glo reagents (Promega) to culture wells and measuring bioluminescence with a luminometer.

For assay [2], the system named is TNFα production by monocytes (CD14+ cells). Put plainly: TNFα production by monocytes from juvenile dermatomyositis patients, intracellular staining by flow cytometry. As to conditions: PBMCs from 2 juvenile dermatomyositis patients; R848 overnight; FIG. 3. The assay is classed as cell-based, human. On the procedure: (§4) Material from Juvenile Dermatomyositis and Lupus patients were obtained from Necker Hospital, Paris, France or from Imagine Institute, Paris, France. The study was approved by the Conité des Protection des Personnes (ID-RCB/EUDRACT: 2014-A01017-40 and 2018-A01358-47) in France.
as §1
(§5) 1) The PBMCs used herein were prepared as described in part A “immune cells preparation”, section 1) above. PBMCs were seeded at 2.10^6/mL. […] Cells were then stimulated with the TLR7/8 agonist resiquimod—R848 (Invivogen) at 5 μg/mL. When stated, AMD (20 μM) (Sigma-Aldrich, MO, USA) was added to the cells 1 h before incubation with example 1.
R848-stimulated PBMCs were washed in PBS and then incubated with a viability stain (Zombie-Aqua, Biolegend) for 30 min at 4° C. After washing, the cells were resuspended in PBS containing 2% FCS and 2 mM EDTA and stained with the extracellular mix using APC-anti-BDCA4 (clone 12C2), FITC-anti-CD123 (clone 6H6), PerCP.cy5.5-anti-CD56 (clone 5.1H11), BV421-anti-HLADR (clone L243), PE.cy7-anti-CD19 (clone 4G7), APC-cy.7-anti-CD14 (clone M5E2) all from Biolegend and used at 1/200 and V500-anti-CD3 (BD Bioscience, clone SP34-2, 1/200). […]

The test system of assay [3] is IFN production by activated immune cells (PBMC) from lupus patients. Put plainly: IFN production by R848-activated PBMC from lupus patients, STING-37 reporter cell line. The assay is classed as cell-based, human. As to conditions: 10 μM, PBMC from three SLE patients, FIG. 2. The method, then: as §4, §1, §2
1) The PBMCs used herein were prepared as described in part A “immune cells preparation”, section 1) above. PBMCs were seeded at 2.10^6/mL. […] Cells were then stimulated with the TLR7/8 agonist resiquimod—R848 (Invivogen) at 5 μg/mL. […]
as §3

In assay [4] the target is T1, human CXCR4 (hCXCR4) receptor (Homo sapiens, UniProt P61073).
T1 construct: expressed in transfected cells; host or cells: HEK-293 T cells, transient co-transfection with polyethylenimine
Put plainly: BRET assay of antagonist activity on the CXCR4-CXCL12 signaling pathway in transfected HEK-293 T cells. The assay is classed as cell-based. The note with it: Gαi1, Gαi2, Gαi3, GαoB or Gαz, EC80 CXCL12, FIG. 6. The method, then: Examples of the present invention were tested for their antagonist activity on human CXCR4 (hCXCR4) receptor transiently over-expressed in HEK-293 T cells. Compounds exert antagonist activity if they decrease the action of CXCL12 on the receptor.
HEK-293 T cells are maintained in Dulbecco's Modified Eagle's Medium supplemented with 10% Foetal Calf Serum, 1% Penicillin/Streptomycin at 37° C./5% CO2. […] After transfection, cells are cultured for 48 h at 37° C./5% CO2.
On the day of the assay, cells are detached using trypsin 0.05%, resuspended in assay buffer (1.8 mM CaCl2, 1 mM MgCl2, 2.7 mM KCl, 137 mM NaCl, 0.4 mM NaH2PO4, 5.5 mM D-Glucose, 11.9 mM NaHCO3, 25 mM Hepes) and seeded in 384 well plate at a density of 20,000 cells per well.
Cells are first incubated for 10 minutes with the compound alone. Then, cells are stimulated by an EC80 CXCL12 concentration for additional 10 minutes and luminescence is recorded. […] Antagonist activity is evaluated in comparison to basal signals evoked by EC80 CXCL12 alone.
For IC50 determination, a dose-response test is performed using 20 concentrations (ranging over 6 logs) of each compound. Dose-response curves are fitted using the sigmoidal dose-response (variable slope) analysis in GraphPad Prism software (GraphPad Software) and IC50 of antagonist activity is calculated. […]

Assay [5] deals with TNFα production by monocytes (CD14+ cells). Briefly: Requirement of CXCR4 (siRNA knockdown or AMD3100) for the effect on TNFα production by monocytes from healthy donors. The assay is classed as cell-based, human. On the procedure: Monocytes were purified from PBMCs by positive selection with the CD14 microbeads (Miltenyi Biotec) and MACS column.
as §5
Isolated monocytes were seeded at 10^5 cells/100 μL in 96-well plates and incubated at 37° C. Cyclophilin B (control) and CXCR4 small interfering RNA (siRNA) (Smart Pool, Dharmarcon) was diluted in DOTAP (Roche Applied Sciences). The mix was gently mixed and incubated at room temperature for 15 minutes. After incubation, the mix was added to cells in culture at a final concentration of 160 nM. Finally, cells were incubated at 37° C. for 24 hours before stimulation.
R848-stimulated PBMCs were washed in PBS and then incubated with a viability stain (Zombie-Aqua, Biolegend) for 30 min at 4° C. After washing, the cells were resuspended in PBS containing 2% FCS and 2 mM EDTA and stained with the extracellular mix using APC-anti-BDCA4 (clone 12C2), FITC-anti-CD123 (clone 6H6), PerCP.cy5.5-anti-CD56 (clone 5.1H11), BV421-anti-HLADR (clone L243), PE.cy7-anti-CD19 (clone 4G7), APC-cy.7-anti-CD14 (clone M5E2) all from Biolegend and used at 1/200 and V500-anti-CD3 (BD Bioscience, clone SP34-2, 1/200). For the TNFα intracellular staining a Fixation/Permeabilization Solution Kit (BD Cytofix/Cytoperm) was used according to the manufacturer's protocol. Briefly, the cells were fixed for 10 min at 4° C. with 100 μL of the Fixation/Permeabilization solution then washed and stained in 100 μL of the BD Perm/Wash Buffer containing TNFα-APC (Miltenyi, 1/500) antibody for 1 h at 4° C. Data acquisition was performed on a Canto II flow cytometer using Diva software (BD Biosciences, San Jose, Calif.). FlowJo software (Treestar, Ashland, Oreg.) was used to analyze data.

The test system of assay [6] is IFN-γ. Put plainly: Cytokine production by R848-activated PBMCs, LEGENDplex Human Inflammation panel 1: IFN-γ. It counts as cell-based. As to conditions: PBMCs from 2 healthy donors, R848 overnight. The method, then: (§6) 2) The PBMCs used herein were prepared as described in part A “immune cells preparation”, section 2) above. PBMCs were seeded at 4.10^6/mL. […] Cells were then stimulated with the TLR7/8 agonist resiquimod—R848 (Sigma-Aldrich, MO, USA) at 5 μg/mL.
(§7) Cytokine expression levels were assessed using LEGENDplex Human inflammation panel 1 Kit (BioLegend, California, USA), which is a bead-based multiplex assay, using fluorescence-encoded beads. […] First, supernatants of R848-stimulated PBMCs were harvested after 24 h of stimulation and frozen at −20° C. for storage. Supernatants were dispensed into a 96-well V-bottom plate. Protocol pursued as per manufacturer recommendations (Manual for BioLegend LEGENDplex, Multi-Analyte Flow Assay Kit, Human Inflammation Panel 1, version 750000393_R01).

Assay [7] relates to TNF-α. Put plainly: Cytokine production by R848-activated PBMCs, LEGENDplex Human Inflammation panel 1: TNF-α. As to conditions: PBMCs from 2 healthy donors, R848 overnight. It counts as cell-based. The method, then: as §6, §7
The subject of assay [8] is MCP-1, IL-6, IL-8 and IL-33. Briefly: Cytokine production by R848-activated PBMCs, LEGENDplex: other inflammatory cytokines. The assay is classed as cell-based, human. The note with it: PBMCs from two healthy donors; R848 5 μg/mL. On the procedure:
as §6, §7

Assay [9] relates to IL-10. Briefly: Cytokine production by R848-activated PBMCs, LEGENDplex Human Inflammation panel 1: IL-10. The note with it: PBMCs from 2 healthy donors, R848 overnight. It counts as cell-based. On the procedure:
as §6, §7

Assay [10] concerns IL-18. Briefly: Cytokine production by R848-activated PBMCs, LEGENDplex Human Inflammation panel 1: IL-18. It counts as cell-based. The note with it: PBMCs from 2 healthy donors, R848 overnight. On the procedure: as §6, §7
In assay [11] the test system is IFN production by activated PBMCs. Briefly: IFN production by R848-activated PBMCs from healthy donors, twINNE reporter cell line. It counts as cell-based, human. As to conditions: means of two results over 2 healthy donors, R848 5 μg/mL, IT1t: mean over all experiments, read-out: IC50 of anti-inflammatory activity (IFN production). An outline of the steps:
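Human PBMCs (4.10^6/mL, RPMI/10% FBS, 37° C) stimulated with R848 at 5 μg/mL; supernatants collected after 24 h. Functional IFN measured on twINNE cells (ISRE-driven luciferase reporter) after 24 h culture by bioluminescence; IC50 from variable-slope dose-response fits.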

Assay [12] concerns IL-12p70. Put plainly: Cytokine production by R848-activated PBMCs, LEGENDplex Human Inflammation panel 1: IL-12p70. The note with it: PBMCs from 2 healthy donors, R848 overnight. The assay is classed as cell-based. On the procedure:
as §6, §7

Assay [13] deals with IL-1β. Briefly: Cytokine production by R848-activated PBMCs, LEGENDplex Human Inflammation panel 1: IL-1β. The assay is classed as cell-based. As to conditions: PBMCs from 2 healthy donors, R848 overnight, read-out: IC50 (μM) 1L-1β. The method, then: as §6, §7
In assay [14] the test system is IL-23. Put plainly: Cytokine production by R848-activated PBMCs, LEGENDplex Human Inflammation panel 1: IL-23. The assay is classed as cell-based. The note with it: PBMCs from 2 healthy donors, R848 overnight. The method, then:
as §6, §7

Where a name gives a salt, the structure may show the parent alone.

T1 sequence (P61073 whole entry): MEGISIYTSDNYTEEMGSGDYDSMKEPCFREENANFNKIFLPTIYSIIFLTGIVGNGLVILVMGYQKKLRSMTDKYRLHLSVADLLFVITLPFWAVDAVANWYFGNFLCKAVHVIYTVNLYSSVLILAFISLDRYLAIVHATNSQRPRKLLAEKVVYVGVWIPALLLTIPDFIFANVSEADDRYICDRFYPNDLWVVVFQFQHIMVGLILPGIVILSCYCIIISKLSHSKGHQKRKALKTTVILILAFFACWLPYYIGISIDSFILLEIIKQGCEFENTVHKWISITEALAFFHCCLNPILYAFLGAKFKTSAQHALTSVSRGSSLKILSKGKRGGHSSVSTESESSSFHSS

In the case of `CC1(C)CN2C(CSC3=NC4CCCCC4N3)=CSC2=N1` (stereo not drawn) [Example 1, 3-(((3a,4,5,6,7,7a-hexahydro-1H-benzo[d]imidazol-2-yl)thio)methyl)-6,6-dimethyl-5,6-dihydroimidazo[2,1-b]thiazole dihydrochloride], the “reduction of IFN production by activated PBMCs” value in assay [1] is reported as 100%. Besides, in assay [2], the “TNF-α production in CD14+ monocytes” value is “strongly inhibited”. Besides, the “IFN production by activated PBMCs” value in [3] is “level similar to the one of unstimulated negative controls”. For the same compound, in [4], the “antagonist activity: recruitment of G proteins induced by the hCXCR4-CXCL12 interaction” value is on record as “significantly lower than IT1t”. Also, the “TNFα production by activated monocytes in the presence of the example after pre-incubation with AMD3100” value in assay [5] (AMD3100 20 μM 1 h, example 1 5 μM or example 2 1 μM, R848, FIG. 5B) is reported as “restored”. Besides, the “TNFα production by activated monocytes in the presence of the example after CXCR4 siRNA” value in [5] (siCXCR4 160 nM 24 h, example 1 5 μM, R848, FIG. 5A) is listed as “restored”.
For the compound `CC1(C)CN2C(CSC(=NC3CCCCC3)NC3CCCCC3)=CSC2=N1` [IT1t, reference compound], the IC50 in assay [6] was found to be 24 µM; in assay [7] it was 48 µM; in assay [9], 20 µM; in assay [10], 9.7 µM; in assay [11], 31 µM; in assay [12], 16 µM. The IC50 in [13] came to 38 µM; in [14], 14 µM. Further, the “inhibition on other inflammatory cytokines such as MCP-1, IL-6, IL-8 and IL-33” value in [8] is “no or poor inhibition”.
